The test system of one data set is HIV. The data set is described as follows: Anti-HIV activity (MT-4 cells, MTT). Type of data set: cell-based. The conditions noted are these: Human immunodeficiency virus 1, MT4, 96 h, cultured 4 days. In a few lines:
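MT-4 cells (2.5×10^5 cells/mL) mixed with serial dilutions of test sample and HIV, cultured 4 days in CO2 incubator. MTT added for 1 h, cells lysed, absorbance read at 560 nm and 690 nm.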

In data set [1] the test system is HIV mutant strain 1 (E138K/G140S/Q148H/N155H). The data set is described as follows: Resistance evaluation test (HeLa-CD4 reporter), mutant strain 1. Type of data set: cell-based. The settings on record: FC=EC50 of mutant strain/EC50 of wild strain, HeLa-CD4 cells. The protocol:
(§1) Serial dilutions of a test sample were prepared in a96-well microplate (50 μL/well). 2.5×10^5 cells/mL of a HeLa-CD4 cell suspension was dispensed at 100 μL/well to the plate containing the test sample. Then, an HIV virus solution (wild strain and mutant strain) was dispensed at 50 μL/well. The plate was mixed with a plate mixer and cultured for 3 days in a CO2 incubator. The culture supernatant in each well was removed by suction. A cell lysis buffer in a reporter assay kit was dispensed at 100 μL/well, and the plate was frozen in a freezer (−80° C.). The plate frozen in a freezer was thawed at room temperature, then mixed with a plate mixer, and centrifuged at 1,200 rpm for 5 minutes. The supernatant of each well was dispensed at 20 μL/well to a 96-well microplate (BLACK). A chemiluminescent reagent in the reporter assay kit was dispensed at 100 μL/well and reacted at room temperature for approximately 1 hour. Then, luminescence intensity was measured using MicroBeta TRILUX. […] FC=EC50 of mutant strain/EC50 of wild strain (Results) FC for the mutant strain 1 (E138K/G140S/Q148H/N155H) and FC for the mutant strain 2 (E92Q/E138T/G140S/Q148H) are shown in the table.

For data set [2], the system named is HIV mutant strain 2 (E92Q/E138T/G140S/Q148H). Description: Resistance evaluation test (HeLa-CD4 reporter), mutant strain 2. Type of data set: cell-based. The settings on record: FC=EC50 of mutant strain/EC50 of wild strain, HeLa-CD4 cells. The protocol: as §1
A short description of another data set: Metabolic stability test. Type of data set: in vitro ADME, human. On the set-up: key: % remaining vs amount at 0 min (=100%). The protocol: Commercially available pooled human liver microsomes were reacted with the compound of the present invention for a certain time. A residual rate was calculated by the comparison between the reacted sample and an unreacted sample to evaluate the degree at which the compound of the present invention is metabolized in the liver. A reaction was performed (oxidative reaction) at 37° C. for 0 minutes or 30 minutes in the presence of 1 mmol/L NADPH in 0.2 mL of a buffer (50 mmol/L Tris-HCl pH 7.4, 150 mmol/L potassium chloride, 10 mmol/L magnesium chloride) containing 0.5 mg protein/mL of human liver microsomes. After the reaction, 50 μL of the reaction solution was added to 100 μL of a solution of methanol/acetonitrile=1/1 (v/v) and mixed, and the mixture was centrifuged at 3000 rpm for 15 minutes. The compound of the present invention in the centrifugation supernatant was quantified by LC/MS/MS or solid-phase extraction (SPE)/MS. The amount of the compound of the present invention remaining after the reaction was calculated with the amount of the compound at 0 minutes of the reaction defined as 100%.

[3] abbreviates: compound 0.5 μmol/L, human liver microsomes 0.5 mg protein/mL, NADPH, 37° C., 30 minutes, amount at 0 minutes defined as 100%.
Where [4] appears, read: human, 30 min, 0.5 μmol/L, pH 7.4.

Structures are written as SMILES.

Broadly, the EC50 is the midpoint of the concentration-response curve. In turn, `CCN1C(=O)c2c(O)c(=O)c(C(=O)NCc3ccc(F)cc3F)cn2N2C[C@H](COC)C[C@@H]12` [II-105] showed an EC50 with HIV of 0.58 nM. The “FC mutant strain 1” value in data set [1] stood at 48. Also, in data set [2], the “FC mutant strain 2” value turned out to be 62. This compound registered a residual rate in “Metabolic stability test” (setting [3]) of 84.3.
Taken in the same sequence, the figures for `CN1C(=O)c2c(O)c(=O)c(C(=O)NCc3cccc(Cl)c3F)cn2N2CCCC[C@@H]12` [II-022] were 0.74 nM, 6.8, 7.7 and 101.
Regarding `CN1C(=O)c2c(O)c(=O)c(C(=O)NCc3cccc(F)c3F)cn2N2CCCC[C@@H]12` [II-104], the EC50 in the data set on HIV was found to be 0.69 nM. Besides, in data set [1], the “FC mutant strain 1” value was 48. Besides, the “FC mutant strain 2” value in data set [2] was determined as 17. In addition, the residual rate in the data set “Metabolic stability test” (setting [3]) came out at 96.9.
In turn, `CCN1C(=O)c2c(O)c(=O)c(C(=O)NCc3ccc(F)cc3F)cn2N2[C@H](COC)CC[C@@H]12` [II-093] showed an EC50 with HIV of 0.32 nM. Also, in data set [1], the “FC mutant strain 1” value was 39. The “FC mutant strain 2” value in data set [2] was determined as 38. In addition, the residual rate in the data set “Metabolic stability test” (setting [3]) is on record as 97.5.
Taken in the same sequence, the figures for `CCN1C(=O)c2c(O)c(=O)c(C(=O)NCc3c(F)cc(F)cc3F)cn2N2C[C@@H]3CC[C@@H](C3)[C@@H]12` [II-015] were 0.95 nM, 5.7, 7.3 and 74.3.
`CN1C(=O)c2c(O)c(=O)c(C(=O)NCc3cccc(Cl)c3F)cn2N2C[C@@H]3CCC[C@@H](C3)[C@@H]12` [II-153]: the EC50 with HIV stood at 0.74 nM. In addition, the “FC mutant strain 1” value in data set [1] is given as 18. The “FC mutant strain 2” value in data set [2] is 10. Also, the residual rate in the data set “Metabolic stability test” (setting [3]) is 75.4.
In the case of `CC(C)N1C(=O)c2c(O)c(=O)c(C(=O)NCc3c(F)cc(F)cc3F)cn2N2[C@H]3COC[C@H]3C[C@@H]12` [II-048], it took 0.55 nM to reach a half-maximal effect in the data set with HIV (EC50). Further, the “FC mutant strain 1” value in data set [1] was found to be 17. Besides, the “FC mutant strain 2” value in data set [2] is reported as 34. In “Metabolic stability test” (setting [4]), this compound registered a residual rate of 73.3.
In turn, `CC(C)N1C(=O)c2c(O)c(=O)c(C(=O)NCc3ccc(F)cc3F)cn2N2C[C@@H]3CC[C@@H](O3)[C@@H]12` [II-021] yielded a concentration for a half-maximal effect (EC50) with HIV of 0.72 nM. For the same compound, the “FC mutant strain 1” value in data set [1] turned out to be 6.6. Besides, the “FC mutant strain 2” value in data set [2] stood at 9. The compound also came in with a residual rate in the data set “Metabolic stability test” (setting [3]) of 89.1.
Taken in the same sequence, the figures for `CN1C(=O)c2c(O)c(=O)c(C(=O)NCc3cccc(Cl)c3F)cn2N2CCOC[C@@H]12` [II-108] were 0.61 nM, 50, 27 and 97.2.
Take `CN1C(=O)c2c(O)c(=O)c(C(=O)NCc3cccc(Cl)c3F)cn2N2[C@H]3COC[C@H]3C[C@@H]12` [II-133]: the 50% effective concentration (EC50) with HIV was 0.43 nM. Besides, the “FC mutant strain 1” value in data set [1] is given as 76. The “FC mutant strain 2” value in data set [2] came out at 17. The compound also had a residual rate in the data set “Metabolic stability test” (setting [4]) of 101.
The compound `CCN1C(=O)c2c(O)c(=O)c(C(=O)NCc3ccc(F)cc3F)cn2N2C[C@@H]3CCC[C@@H](O3)[C@@H]12` [II-156] yielded an EC50 in the data set on HIV of 0.33 nM. For the same compound, the “FC mutant strain 1” value in data set [1] is 26. Further, the “FC mutant strain 2” value in data set [2] was 16. Besides, the residual rate in “Metabolic stability test” (setting [3]) turned out to be 98.6.
`CN1C(=O)c2c(O)c(=O)c(C(=O)NCc3cccc(Cl)c3F)cn2N2CCCC[C@@]12C` [II-099] had an EC50 with HIV of 0.33 nM. The “FC mutant strain 1” value in data set [1] was 44. Moreover, in data set [2], the “FC mutant strain 2” value is listed as 26. Moreover, the residual rate in the data set “Metabolic stability test” (setting [3]) turned out to be 88.6.
Compound `CC(C)N1C(=O)c2c(O)c(=O)c(C(=O)NCc3c(F)cc(F)cc3F)cn2N2C[C@@H]3CC[C@@H](O3)[C@@H]12` [II-005] came in with a concentration giving a half-maximal response (EC50) in the data set with HIV of 0.62 nM. In addition, the “FC mutant strain 1” value in data set [1] was 3.1. Moreover, the “FC mutant strain 2” value in data set [2] is listed as 7.4. The residual rate in “Metabolic stability test” (setting [3]) turned out to be 80.2.
Regarding `CCN1C(=O)c2c(O)c(=O)c(C(=O)NCc3ccc(F)cc3)cn2N2CCCC[C@@H]12` [II-077], in the data set with HIV, the response was half-maximal at 1.1 nM (EC50). For the same compound, the “FC mutant strain 1” value in data set [1] was found to be 32. Besides, the “FC mutant strain 2” value in data set [2] was found to be 36. Moreover, in the data set “Metabolic stability test” (setting [3]), the residual rate is recorded as 100.
On the same counts, the results for `CCN1C(=O)c2c(O)c(=O)c(C(=O)NCc3c(F)cc(F)cc3F)cn2N2CCCC[C@@H]12` [Compound I-011] are 2.2 nM, 13, 10 and 88.
On the same counts, the results for `CCN1C(=O)c2c(O)c(=O)c(C(=O)NCc3ccc(F)cc3F)cn2N2C[C@@H]3CCC[C@@H](C3)[C@@H]12` [II-018] are 2.9 nM, 6.1, 8.7 and 77.6.
`CCN1C(=O)c2c(O)c(=O)c(C(=O)NCc3ccc(F)cc3F)cn2N2[C@H]3COC[C@H]3C[C@@H]12` [II-136] displayed an EC50 in the data set on HIV of 0.65 nM. For the same compound, the “FC mutant strain 1” value in data set [1] is 78. Besides, the “FC mutant strain 2” value in data set [2] is given as 110. The residual rate in “Metabolic stability test” (setting [4]) is 77.2.
In the case of `CCN1C(=O)c2c(O)c(=O)c(C(=O)NCc3ccc(F)nc3F)cn2N2C[C@@H]3CC[C@@H](O3)[C@@H]12` [II-157], the EC50 with HIV was 2.2 nM. Further, the “FC mutant strain 1” value in data set [1] was 36. For the same compound, the “FC mutant strain 2” value in data set [2] was found to be 25. Further, the residual rate in “Metabolic stability test” (setting [3]) is on record as 105.
`CN1C(=O)c2c(O)c(=O)c(C(=O)NCc3c(F)cc(F)cc3F)cn2N2CCCC[C@@H]12` [II-087] yielded an EC50 in the data set with HIV of 1.4 nM. Moreover, in data set [1], the “FC mutant strain 1” value was found to be 38. Also, the “FC mutant strain 2” value in data set [2] worked out at 14. Besides, the residual rate in the data set “Metabolic stability test” (setting [3]) came out at 105.
On the same counts, the results for `CN1C(=O)c2c(O)c(=O)c(C(=O)NCc3cccc(Cl)c3F)cn2N2C[C@@H]3CC[C@@H](O3)[C@@H]12` [II-066] are 0.17 nM, 25, 15 and 97.7.
`CCN1C(=O)c2c(O)c(=O)c(C(=O)NCc3cccc(Cl)c3F)cn2N2[C@H]3COC[C@H]3C[C@@H]12` [II-060] gave a half-maximal effective concentration (EC50) in the data set on HIV of 0.27 nM. Moreover, the “FC mutant strain 1” value in data set [1] is reported as 22. Besides, in data set [2], the “FC mutant strain 2” value is 16. The residual rate in the data set “Metabolic stability test” (setting [4]) was determined as 61.6.
Compound `CCN1C(=O)c2c(O)c(=O)c(C(=O)NCc3c(F)cc(F)cc3F)cn2N2C[C@@H](C)CC[C@@H]12` [II-020] registered an EC50 in the data set with HIV of 1.5 nM. Further, the “FC mutant strain 1” value in data set [1] stood at 6.4. In data set [2], the “FC mutant strain 2” value is given as 8.9. For the same compound, in the data set “Metabolic stability test” (setting [3]), the residual rate was 90.7.
In the case of `CCN1C(=O)c2c(O)c(=O)c(C(=O)NCc3ccc(F)cc3F)cn2N2CC[C@@H](C)C[C@@H]12` [II-023], the EC50 in the data set on HIV was found to be 0.46 nM. Besides, in data set [1], the “FC mutant strain 1” value was found to be 7. Moreover, the “FC mutant strain 2” value in data set [2] is listed as 4.2. Besides, the residual rate in “Metabolic stability test” (setting [3]) worked out at 82.9.
Compound `CCN1C(=O)c2c(O)c(=O)c(C(=O)NCc3ccc(F)cc3F)cn2N2CCCC[C@@]12C` [Compound I-006] returned an EC50 in the data set on HIV of 0.76 nM. Moreover, the “FC mutant strain 1” value in data set [1] worked out at 24. The “FC mutant strain 2” value in data set [2] was found to be 16. Also, in “Metabolic stability test” (setting [3]), the residual rate turned out to be 92.5.
Taken in the same sequence, the figures for `C[C@H]1CC[C@H]2N(C)C(=O)c3c(O)c(=O)c(C(=O)NCc4cccc(Cl)c4F)cn3N2C1` [II-024] were 1.4 nM, 7.3, 7 and 84.1.
Take `CCN1C(=O)c2c(O)c(=O)c(C(=O)NCc3c(F)cc(F)cc3F)cn2N2C[C@@H]3CC[C@@H](O3)[C@@H]12` [II-046]: the concentration giving a half-maximal response (EC50) in the data set with HIV was found to be 0.19 nM. The “FC mutant strain 1” value in data set [1] came out at 17. In data set [2], the “FC mutant strain 2” value is 28. This compound displayed a residual rate in “Metabolic stability test” (setting [3]) of 88.4.
On the same counts, the results for `C[C@H]1C[C@H]2N(C)C(=O)c3c(O)c(=O)c(C(=O)NCc4cccc(Cl)c4F)cn3N2C1` [II-042] are 3.2 nM, 15, 7.9 and 97.4.

The values are drawn from patent US11649236B2, “Polycyclic carbamoylpyridone derivative” (Shionogi & Co., Ltd., priority 2018, dated 2023).
